pIC50: −log10 of the molar value.
What was measured:
[1] = system: primary apocrine cultures; test: Short circuit current (Isc) in Ussing chamber, primary apocrine cultures on Transwells; format: cell-based, human; settings: for Peak agonist Isc response, Control / Peak agonist Isc response after amiloride pre-treatment, Control / Peak agonist Isc response, Chloride-free / Peak agonist Isc response after amiloride pre-treatment, Chloride-free / ΔIsc (change of resting short circuit current): primary apocrine; for Peak agonist Isc response, Control / Peak agonist Isc response after amiloride pre-treatment, Control: chloride-containing buffer; for Peak agonist Isc response, Control / Peak agonist Isc response, Chloride-free: Carbachol 20 μM; for Peak agonist Isc response, Control / Peak agonist Isc response after amiloride pre-treatment, Control / Peak agonist Isc response, Chloride-free / Peak agonist Isc response after amiloride pre-treatment, Chloride-free: Histamine 200 μM, ATP 100 μM; for Peak agonist Isc response after amiloride pre-treatment, Control / Peak agonist Isc response after amiloride pre-treatment, Chloride-free: Carbachol 200 μM, Isoprenaline ≧1 μM, LBK 170 nM; for ΔIsc (change of resting short circuit current): amiloride 10 μM apical, furosemide 1 mM basolateral
Protocol: (§1) After 13-18 days, confluent ASG5 cultures were passaged onto Transwell collagen-coated permeable supports (0.33 cm^2 area, Costar, cat. no. 3495, High Wycombe, Bucks, UK). This involved incubation in 2% EDTA for 20 minutes, followed by trypsin (0.5%)-EDTA (0.2%) for approximately five minutes. 3×10^5 cells were transferred onto each Transwell supplemented with WEM. The Transwell supports were suspended in 24-well plates in 0.6 ml of the same medium. For primary cultures, only first passage cells were used in experiments. The medium bathing cultures on Transwells was changed every two days.
(§2) Transepithelial resistance (TER) across epithelia on Transwells was monitored using ‘chopstick’ electrodes (WPI, Alresford, Hants, UK) connected to an ohmmeter. The TER was estimated by subtracting the measurement for a moistened filter blank. At peak TER, the Transwell supports were mounted in an Ussing Chamber. Epithelia were bathed in a modified Krebs buffer, oxygenated and maintained at 37° C., pH 7.4, with 95% O2/5% CO2. The buffer consisted of (mM): NaCl, 117; KCl, 4.7; CaCl2, 1.5; MgSO4, 1.2; NaHCO3, 25; and glucose, 11.1. Voltage and current electrodes (calomel and silver/silver chloride respectively, ABB Kent Taylor, Stonehouse, Glos, UK), connected to a voltage/current clamp were extended into the bath via bridges containing agar dissolved in 3 M potassium chloride.
(§3) Voltage electrodes were balanced in the absence of a Transwell and fluid resistance between the voltage electrodes was compensated for by the injection of an arbitrary DC current. After mounting a Transwell the epithelium was short-circuited, the current allowed to stabilise, typically for 15 minutes. Given the rarity of apocrine material, drugs were typically added in succession as disclosed by Brayden et al (1988) J. Physiol, 405: 657-675, Pedersen et al (1992) Exp. Physiol, 77; 863-871, and Shen et al, (1994) Am. J. Physiol, 266: L493-501 and changes in short circuit current (I^sc) recorded. The duration of experiments was typically 15-60 min. TER was estimated using Ohm's Law, routinely by clamping the voltage at ±10 mV and measuring the current required to achieve this. Unless otherwise stated all drugs listed in the legend were added to the basolateral side, except for amiloride that was added to the apical side. Amiloride is an inhibitor of the epithelial Na^+ channel (ENaC) and the Na^+/H^+ exchanger.
(§4) Chloride substitution experiments were carried out in Krebs buffer in which sodium gluconate was substituted for NaCl, potassium gluconate for KCl and CaSO4 for CaCl2. Glucose-free experiments were carried out with 11.1 mM mannitol as a replacement to maintain osmolality. Experiments in which barium was used as an inhibitor of potassium channels were carried out in the absence of sulphate ions, such that MgCl2 replaced MgSO4.

[2] = system: proliferating apocrine cultures (ASG5); test: Short circuit current (Isc) in Ussing chamber, proliferating apocrine cultures on Transwells; format: cell-based, human; settings: for Peak agonist Isc response, Control / Peak agonist Isc response, Chloride-free: proliferating (ASG5), Carbachol 20 μM; for Peak agonist Isc response, Control / Peak agonist Isc response after amiloride pre-treatment, Control: chloride-containing buffer; for Peak agonist Isc response, Control / Peak agonist Isc response, Chloride-free / Peak agonist Isc response after amiloride pre-treatment, Control / Peak agonist Isc response after amiloride pre-treatment, Chloride-free: Histamine 200 μM, ATP 100 μM; for Peak agonist Isc response after amiloride pre-treatment, Control / Peak agonist Isc response after amiloride pre-treatment, Chloride-free / ΔIsc (change of resting short circuit current): proliferating apocrine; for Peak agonist Isc response after amiloride pre-treatment, Control / Peak agonist Isc response after amiloride pre-treatment, Chloride-free: Carbachol 200 μM, Isoprenaline ≧1 μM, LBK 170 nM; for ΔIsc (change of resting short circuit current): furosemide 1 mM basolateral
Protocol: as §1, §2, §3, §4

[3] = system: eccrine sweat gland cells; test: Short circuit current (Isc) in Ussing chamber, primary eccrine sweat gland cells; format: cell-based; settings: amiloride 10 μM apical
[4] = system: primary cultures of apocrine secretory coils; test: TPA treatment of primary cultures of apocrine secretory coils in MEGM; format: cell-based, human; settings: TPA 250 nM in MEGM; 3-4 days after addition
Protocol: A proliferating apocrine cell line was derived from primary cultures of apocrine secretory coils. After 7 days culture in MEGM, the potent phorbol ester, TPA (phorbol-12-myristate-13 acetate; ex Calbiochem, Nottingham, UK) was included in the medium at a concentration of 250 nM. […] Commonly, the ester comprises at least aliphatic substituent particularly suitably at the 12 and/or 13 positions, such as a long chain alkyl (C7 to C24) and optionally also a short chain alkyl (C2 to C6).
However, the upper differentiated layers were removed by repeated washing to leave a proliferative monolayer of cells still attached to the flask. Cells of the proliferative layer were passaged into 96 well plates to generate clonal cell lines. Cells were maintained, passaged and continued to grow in MEGM containing TPA for approximately 2 months. After this period cells were cultured in MEGM alone and monitored for continued proliferation. Initially, many subclones continued to grow, but by the end of the next 10 passages, the majority had begun to senesce. One culture, in particular, ASG5, continued to grow and has now been maintained in culture, proliferating over more than 40 passages with no signs of a reduction in growth rate. […] This culture continues to proliferate in the absence of TPA, can survive cryopreservation and is considered to be stable.

Nc1ncnc2c1ncn2[C@@H]1O[C@H](COP(=O)(O)OP(=O)(O)OP(=O)(O)O)[C@@H](O)[C@H]1O [ATP, Adenosine triphosphate]
Peak agonist Isc response, Control [1]: 7.4 ± 1.8 μA cm^−2 | Peak agonist Isc response after amiloride pre-treatment, Control [1]: 4.9 ± 0.7 μA cm^−2 | Peak agonist Isc response, Chloride-free ([1]; chloride-free buffer): 2.9 ± 0.9 μA cm^−2 | Peak agonist Isc response after amiloride pre-treatment, Chloride-free ([1]; chloride-free buffer): 4.3 ± 2.4 μA cm^−2 | Peak agonist Isc response, Control [2]: 6.3 ± 1.8 μA cm^−2 | Peak agonist Isc response, Chloride-free ([2]; chloride-free buffer): 4.0 ± 0.5 μA cm^−2 | Peak agonist Isc response after amiloride pre-treatment, Control [2]: 1.8 ± 0.3 μA cm^−2 | Peak agonist Isc response after amiloride pre-treatment, Chloride-free ([2]; chloride-free buffer): 0.8 ± 0.2 μA cm^−2

N=C(N)NC(=O)c1nc(Cl)c(N)nc1N [Amiloride]
ΔIsc (change of resting short circuit current) [3]: −7.1 ± 0.7 μA cm^−2 | reduction of basal Isc under chloride-free conditions ([1]; amiloride 10 μM, chloride-free buffer, primary cultures): 3.6 μA cm^−2 | ΔIsc (change of resting short circuit current) [1]: −6.0 ± 0.9 μA cm^−2 | pIC50 ([2]; Homo sapiens, apical amiloride, read-out: IC50 for amiloride (dose response curves, resting Isc)): 5.40 to 5.70 | carbachol stimulation of Isc after amiloride pre-treatment (FIG. 4A versus FIG. 3) ([2]; amiloride 10 μM apical, CCh 20 μM): reduced | effect of amiloride pre-treatment on peak Isc responses to CCh, His and ATP (FIG. 2) ([2]; amiloride 10 μM apical, CCh 20 μM, His 200 μM, ATP 100 μM basolateral): significantly reduced | reduction of basal Isc under chloride-free conditions ([2]; amiloride 10 μM, chloride-free buffer, proliferating cultures): 2.5 μA cm^−2 | reduction of resting Isc ([2]; apically applied amiloride 10 μM, n=20, P<0.001): 4.5±1.0 μA cm^−2 | ΔIsc (change of resting short circuit current) ([2]; amiloride 10 μM apical): −4.2 ± 1.0 μA cm^−2

C[N+](C)(C)CCOC(N)=O [Carbachol]
Peak agonist Isc response, Control [1]: 3.9 ± 0.7 μA cm^−2 | Peak agonist Isc response after amiloride pre-treatment, Control [1]: 6.3 ± 1.4 μA cm^−2 | Peak agonist Isc response, Chloride-free ([1]; chloride-free buffer): 0.7 ± 0.6 μA cm^−2 | Peak agonist Isc response after amiloride pre-treatment, Chloride-free ([1]; chloride-free buffer): 1.7 ± 1.2 μA cm^−2 | Peak agonist Isc response, Control [2]: 4.0 ± 0.7 μA cm^−2 | Peak agonist Isc response, Chloride-free ([2]; chloride-free buffer): 3.0 ± 0.8 μA cm^−2 | Peak agonist Isc response after amiloride pre-treatment, Control [2]: 2.4 ± 0.6 μA cm^−2 | Peak agonist Isc response after amiloride pre-treatment, Chloride-free ([2]; chloride-free buffer): 1.3 ± 0.3 μA cm^−2

NS(=O)(=O)c1cc(C(=O)O)c(NCc2ccco2)cc1Cl [Furosemide]
Inhibition by furosemide of agonist response, ΔIsc ([1]; 90 µM): 0.8 ± 0.2 μA cm^−2 | Inhibition by furosemide of agonist response, ΔIsc ([1]; furosemide 90 μM, agonist ATP 100 μM, primary): −2.6 ± 0.5 μA cm^−2 | Inhibition by furosemide of agonist response, ΔIsc ([1]; furosemide 90 μM, agonist Carbachol ≧20 μM, primary): −2.0 ± 0.5 μA cm^−2 | Inhibition by furosemide of agonist response, ΔIsc ([1]; furosemide 90 μM, agonist Histamine 200 μM, primary): −1.3 ± 0.2 μA cm^−2 | agonist Isc responses on addition of furosemide after agonist stimulation ([1]; primary apocrine cultures): rapid reduction in responses | ΔIsc (change of resting short circuit current) [1]: −0.5 ± 0.2 μA cm^−2 | Inhibition by furosemide of agonist response, ΔIsc ([2]; 90 µM): −1.2 ± 0.3 μA cm^−2 | Inhibition by furosemide of agonist response, ΔIsc ([2]; furosemide 90 μM, agonist ATP 100 μM, proliferating): −1.2 ± 0.3 μA cm^−2 | Inhibition by furosemide of agonist response, ΔIsc ([2]; furosemide 90 μM, agonist Carbachol ≧20 μM, proliferating): −1.1 ± 0.4 μA cm^−2 | Inhibition by furosemide of agonist response, ΔIsc ([2]; furosemide 90 μM, agonist Histamine 200 μM, proliferating): −1.0 ± 0.4 μA cm^−2 | magnitude of Isc response to carbachol after furosemide pre-treatment (FIG. 4B versus FIG. 3) ([2]; furosemide 1 mM pre-treatment, CCh 20 μM): reduces the magnitude of response | ΔIsc (change of resting short circuit current) ([2]; amiloride 10 μM apical): −0.8 ± 0.3 μA cm^−2 | agonist Isc responses on addition of furosemide after agonist stimulation ([2]; transformed apocrine cultures): rapid reduction in responses

NCCc1c[nH]cn1 [Histamine]
Peak agonist Isc response, Control [1]: 6.4 ± 1.3 μA cm^−2 | Peak agonist Isc response after amiloride pre-treatment, Control [1]: 4.2 ± 0.5 μA cm^−2 | Peak agonist Isc response, Chloride-free ([1]; chloride-free buffer): 1.7 ± 0.5 μA cm^−2 | Peak agonist Isc response after amiloride pre-treatment, Chloride-free ([1]; chloride-free buffer): 2.4 ± 1.4 μA cm^−2 | Peak agonist Isc response, Control [2]: 4.8 ± 1.3 μA cm^−2 | Peak agonist Isc response, Chloride-free ([2]; chloride-free buffer): 3.3 ± 0.8 μA cm^−2 | Peak agonist Isc response after amiloride pre-treatment, Control [2]: 1.9 ± 0.4 μA cm^−2 | Peak agonist Isc response after amiloride pre-treatment, Chloride-free ([2]; chloride-free buffer): 1.0 ± 0.2 μA cm^−2

CC(C)NCC(O)c1ccc(O)c(O)c1 (stereo not shown) [Isoprenaline]
Peak agonist Isc response after amiloride pre-treatment, Control [1]: 1.8 ± 0.4 μA cm^−2 | Peak agonist Isc response after amiloride pre-treatment, Chloride-free ([1]; chloride-free buffer): 0.7 ± 0.3 μA cm^−2 | Peak agonist Isc response after amiloride pre-treatment, Control [2]: 1.8 ± 0.4 μA cm^−2 | Peak agonist Isc response after amiloride pre-treatment, Chloride-free ([2]; chloride-free buffer): 0.8 ± 0.2 μA cm^−2

CCCCCCCCCCCCCC(=O)O[C@@H]1[C@@H](C)[C@@]2(O)[C@@H](C=C(CO)C[C@]3(O)C(=O)C(C)=C[C@@H]23)[C@@H]2C(C)(C)[C@]12OC(C)=O [TPA, phorbol-12-myristate-13 acetate]
effect on culture morphology (multilayering) [4]: induced premature multilayering

L-bradykinin (RPPGFSPFR; Bradykinin; UniProt P01042 381-389, looked up) [LBK, agonist added basolaterally]
Peak agonist Isc response after amiloride pre-treatment, Control [1]: 2.0 ± 0.5 μA cm^−2 | Peak agonist Isc response after amiloride pre-treatment, Chloride-free ([1]; chloride-free buffer): 0.6 ± 0.4 μA cm^−2 | Peak agonist Isc response after amiloride pre-treatment, Control [2]: 1.6 ± 0.3 μA cm^−2 | Peak agonist Isc response after amiloride pre-treatment, Chloride-free ([2]; chloride-free buffer): 0.9 ± 0.3 μA cm^−2
